Assay results from EPA's ToxRefDB 2.

Tests used:
dog [1] = conditions: Subchronic oral toxicity in nonrodent, beagle, Gavage/Intubation, dose end: 93 day, group: systemic
rat [2] = conditions: Sub-acute repeat dose toxicity; sprague dawley; Oral; Gavage/Intubation; dose end: 14 day; group: systemic; systemic / clinical chemistry / 5' nucleotidase / 5' nucleotidase + systemic / clinical chemistry / alanine aminotransferase (alt/sgpt) / …
dog [3] = conditions: Sub-acute repeat dose toxicity; beagle; Oral; Gavage/Intubation; dose end: 5 day; group: systemic; systemic / in life observation / clinical signs / abnormal feces
rat [4] = conditions: Sub-acute repeat dose toxicity; sprague dawley; Oral; Gavage/Intubation; dose end: 4 day; group: systemic; systemic / in life observation / clinical signs / respiration (rales) + systemic / in life observation / mortality / mortality + systemic / …
rat [5] = conditions: Subchronic oral toxicity in rodents, sprague dawley, Gavage/Intubation, dose end: 93 day, group: systemic
rat [6] = conditions: Sub-acute repeat dose toxicity, sprague dawley, Oral, Gavage/Intubation, dose end: 7 day, group: systemic
dog [7] = conditions: Sub-acute repeat dose toxicity, beagle, Oral, Gavage/Intubation, dose end: 5 day, group: systemic
dog [8] = conditions: Sub-acute repeat dose toxicity; beagle; Oral; Gavage/Intubation; dose end: 14 day; group: systemic; systemic / in life observation / clinical signs / emesis + systemic / in life observation / clinical signs / tremors + systemic / in life …
rabbit [9] = conditions: Sub-acute repeat dose toxicity, new zealand white, Oral, Gavage/Intubation, dose end: 5 day, group: systemic
rabbit [10] = conditions: Sub-acute repeat dose toxicity; new zealand white; Oral; Gavage/Intubation; dose end: 4 day; group: systemic; systemic / in life observation / body weight / body weight + systemic / in life observation / food consumption / food consumption
rat [11] = conditions: Prenatal developmental toxicity study, sprague dawley, Injection, Intravenous, dose end: 17 GD
rabbit [12] = conditions: Prenatal developmental toxicity study, new zealand white, Injection, Intravenous, dose end: 19 GD
rat [13] = conditions: Fertility (Segment I); sprague dawley; Injection; Intravenous; dose end: 20 GD; group: parental; systemic / in life observation / body weight / body weight gain + systemic / in life observation / food consumption / food consumption + …
[14] = systemic / in life observation / clinical signs / abnormal feces + systemic / in life observation / clinical signs / salivation
[15] = systemic / in life observation / clinical signs / emesis + systemic / organ weight / adrenal gland / absolute + systemic / clinical …
[16] = systemic / in life observation / clinical signs / abnormal respiratory sounds + systemic / in life observation / clinical signs / salivation
[17] = systemic / organ weight / adrenal gland / absolute + systemic / in life observation / food consumption / food consumption + systemic / …
[18] = systemic / clinical chemistry / albumin-globulin ratio / albumin-globulin ratio + systemic / clinical chemistry / cholesterol / cholesterol…
[19] = systemic / in life observation / clinical signs / salivation + systemic / pathology microscopic / liver / vacuolization
[20] = systemic / in life observation / clinical signs / abnormal feces + systemic / in life observation / clinical signs / arrhythmia + systemic…
[21] = systemic / in life observation / clinical signs / salivation
[22] = systemic / in life observation / body weight / body weight + systemic / in life observation / clinical signs / erythema
[23] = systemic / in life observation / clinical signs / erythema
[24] = group: developmental, developmental / developmental malformation / bone / incomplete ossification + developmental / developmental malformation / bone / knobby + …
[25] = group: developmental, developmental / developmental malformation / ureter / convoluted
[26] = group: maternal, systemic / in life observation / body weight / body weight gain
[27] = group: maternal, systemic / in life observation / body weight / body weight gain + systemic / in life observation / food consumption / food consumption
[28] = group: developmental, developmental / developmental malformation / heart / enlarged aortic valve
[29] = group: maternal, reproductive / offspring survival early / litter size / litter size

Compound `COc1ccc(C(C)(C)C)cc1CN[C@H]1C2CCN(CC2)[C@H]1C(c1ccccc1)c1ccccc1` has an LEL (dog [1]; [14]) of 1 mg/kg/day, an NEL (dog [1]; [14]) of less than 1 mg/kg/day and an LOAEL (dog [1]; [15]) greater than 20 mg/kg/day. The NOAEL (dog [1]; [15]) was no less than 20 mg/kg/day, the LOAEL (rat [2]) was greater than 500 mg/kg/day and the NEL (rat [2]) was less than 150 mg/kg/day. The NOAEL (rat [2]) was no less than 500 mg/kg/day, the LEL (dog [3]) was 5 mg/kg/day and the LOAEL (dog [3]) was greater than 20 mg/kg/day. It also gave an NEL (dog [3]) of less than 5 mg/kg/day, an NOAEL (dog [3]) of no less than 20 mg/kg/day and an LEL (rat [4]) of 300 mg/kg/day. The LOAEL (rat [4]) was greater than 300 mg/kg/day, the NEL (rat [4]) was less than 300 mg/kg/day and the NOAEL (rat [4]) was no less than 300 mg/kg/day. The LEL (rat [5]; [16]) was 5 mg/kg/day, the NEL (rat [5]; [16]) was less than 5 mg/kg/day and the LOAEL (rat [5]; [17]) was greater than 150 mg/kg/day. The NOAEL (rat [5]; [17]) was no less than 150 mg/kg/day, the LOAEL (rat [6]; [18]) was greater than 100 mg/kg/day and the NOAEL (rat [6]; [18]) was no less than 100 mg/kg/day. For the same compound, the LEL (rat [6]; [19]) was 30 mg/kg/day, the NEL (rat [6]; [19]) was less than 30 mg/kg/day and the LOAEL (dog [7]; [20]) was greater than 20 mg/kg/day. It also gave an NOAEL (dog [7]; [20]) of no less than 20 mg/kg/day, an LEL (dog [7]; [21]) of 5 mg/kg/day and an NEL (dog [7]; [21]) of less than 5 mg/kg/day. The LEL (dog [8]) was 20 mg/kg/day, the LOAEL (dog [8]) was greater than 20 mg/kg/day and the NEL (dog [8]) was less than 20 mg/kg/day. It also gave an NOAEL (dog [8]) of no less than 20 mg/kg/day, an LOAEL (rabbit [9]; [22]) greater than 150 mg/kg/day and an NOAEL (rabbit [9]; [22]) of no less than 150 mg/kg/day. For the same compound, the LEL (rabbit [9]; [23]) was 5 mg/kg/day, the NEL (rabbit [9]; [23]) was less than 5 mg/kg/day and the LOAEL (rabbit [10]) was greater than 150 mg/kg/day. The NEL (rabbit [10]) was 30 mg/kg/day and the NOAEL (rabbit [10]) was no less than 150 mg/kg/day.

`CCOC(=O)c1ccc(C2CCC(NC[C@H](O)COc3ccc(O)c(NS(C)(=O)=O)c3)CC2)cc1.Cl` (stereo partly specified) gave an LOAEL (rat [11]; [24]) of 160 mg/kg/day, an NOAEL (rat [11]; [24]) of 40 mg/kg/day and an LEL (rat [11]; [25]) of 10 mg/kg/day. The NEL (rat [11]; [25]) was less than 10 mg/kg/day, the LEL (rat [11]; [26]) was 10 mg/kg/day and the NEL (rat [11]; [26]) was less than 10 mg/kg/day. It also gave an LOAEL (rat [11]; [27]) of 160 mg/kg/day, an NOAEL (rat [11]; [27]) of 40 mg/kg/day and an LEL (rabbit [12]; [28]) of 160 mg/kg/day. It also gave an LOAEL (rabbit [12]; [28]) greater than 160 mg/kg/day, an NEL (rabbit [12]; [28]) of 80 mg/kg/day and an NOAEL (rabbit [12]; [28]) of no less than 160 mg/kg/day. The LOAEL (rabbit [12]; [29]) was 80 mg/kg/day, the NOAEL (rabbit [12]; [29]) was 40 mg/kg/day and the LEL (rabbit [12]; group: maternal, reproductive / offspring survival early / litter size / litter size + reproductive / reproductive performance / postimplantation loss / …) was 80 mg/kg/day. The NEL (rabbit [12]; group: maternal, reproductive / reproductive performance / postimplantation loss / postimplantation loss + reproductive / reproductive performance / …) was 40 mg/kg/day, the LEL (rat [13]) was 160 mg/kg/day and the LOAEL (rat [13]) was 160 mg/kg/day.
